From PubChem BioAssay AID330 (DTP/NCI, 2004)
Several values for one entry are separate records, joined by “and”; a condition that tells them apart may be missing. Equal entries are not always repeated. Toxic doses and inconclusive results are not listed. The calls were made as follows: active = survival T/C of 150% or more; inactive = T/C below 125% in these data.

Tested on: P388 leukemia ip, CD2F1 mice, survival T/C
Assay: NCI In Vivo Anticancer Drug Screen. Data for tumor model P388 Leukemia (intraperitoneal) in CD2F1 (CDF1) mice
Conditions: endpoint: median survival time, higher = longer survival
In short: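 Mice carrying the transplanted tumor received test compound or vehicle. Survival was recorded in each group, and the value is the treated-group measurement divided by that of the vehicle-treated control group.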

[1] = dose: 100.0 mg/kg/injection, schedule: Q01DX001 (ip), vehicle: Klucel (hydroxypropylcellulose) (HPC)
[2] = dose: 200.0 mg/kg/injection, schedule: Q01DX001 (ip), vehicle: Klucel (hydroxypropylcellulose) (HPC)
[3] = dose: 400.0 mg/kg/injection, schedule: Q01DX001 (ip), vehicle: Klucel (hydroxypropylcellulose) (HPC)
[4] = dose: 50.0 mg/kg/injection, schedule: Q01DX005 (ip), vehicle: Klucel (hydroxypropylcellulose) (HPC)
[5] = dose: 60.0 mg/kg/injection, schedule: Q01DX005 (ip), vehicle: saline with Tween-80
[6] = dose: 120.0 mg/kg/injection, schedule: Q01DX005 (ip), vehicle: saline with Tween-80
[7] = dose: 240.0 mg/kg/injection, schedule: Q01DX005 (ip), vehicle: saline with Tween-80
[8] = dose: 12.5 mg/kg/injection, schedule: Q01DX009 (ip), vehicle: saline
[9] = dose: 25.0 mg/kg/injection, schedule: Q01DX009 (ip), vehicle: saline
[10] = dose: 50.0 mg/kg/injection, schedule: Q01DX009 (ip), vehicle: saline with Tween-80
[11] = dose: 100.0 mg/kg/injection, schedule: Q01DX009 (ip), vehicle: saline with Tween-80
[12] = dose: 200.0 mg/kg/injection, schedule: Q01DX009 (ip), vehicle: saline with Tween-80
[13] = dose: 50.0 mg/kg/injection, schedule: Q01DX005 (ip), vehicle: saline with Tween-80
[14] = dose: 100.0 mg/kg/injection, schedule: Q01DX005 (ip), vehicle: saline with Tween-80
[15] = dose: 100.0 mg/kg/injection, schedule: Q01DX005 (ip), vehicle: Klucel (hydroxypropylcellulose) (HPC)
[16] = dose: 200.0 mg/kg/injection, schedule: Q01DX005 (ip), vehicle: Klucel (hydroxypropylcellulose) (HPC)
[17] = dose: 100.0 mg/kg/injection, schedule: Q04DX003 (ip), vehicle: saline with Tween-80
[18] = dose: 200.0 mg/kg/injection, schedule: Q04DX003 (ip), vehicle: saline with Tween-80

Measured: T/C

C=Cn1c([N+](=O)[O-])cnc1/C=C/c1ccc(C#N)cc1
inactive: [1] 94 % of control | [2] 96 % of control | [3] 93 % of control

O=C1C=CC(=O)c2c(O)c3c(c(O)c21)C[C@H](O)[C@H](O)[C@@H]3O
inactive: dose: 1.56 mg/kg/injection, schedule: Q04DX003 (ip), vehicle: water 98 % of control | dose: 3.13 mg/kg/injection, schedule: Q04DX003 (ip), vehicle: water 92 % of control | dose: 6.25 mg/kg/injection, schedule: Q04DX003 (ip), vehicle: water 102 % of control

COc1ccc2c(c1)C(c1cccc3ccccc13)OC2 (stereo unspecified)
inactive: dose: 12.5 mg/kg/injection, schedule: Q01DX005 (ip), vehicle: Klucel (hydroxypropylcellulose) (HPC) 100 % of control | dose: 25.0 mg/kg/injection, schedule: Q01DX005 (ip), vehicle: Klucel (hydroxypropylcellulose) (HPC) 88 % of control | [4] 86 % of control and 91 % of control

Cc1cc(=O)oc2c1ccc1occc(=O)c12
inactive: [5] 96 % of control | [6] 102 % of control | [7] 100 % of control

C=C1C(=O)OC2/C=C(\COC(C)=O)CC/C=C(/COC(=O)C(C)CC)CC(O)C12 (stereo unspecified) (tested in a mixture with another compound)
inactive: dose: 2.0 mg/kg/injection, schedule: Q01DX009 (ip), vehicle: Klucel (hydroxypropylcellulose) (HPC) 119 % of control | dose: 4.0 mg/kg/injection, schedule: Q01DX009 (ip), vehicle: Klucel (hydroxypropylcellulose) (HPC) 114 % of control | dose: 8.0 mg/kg/injection, schedule: Q01DX009 (ip), vehicle: Klucel (hydroxypropylcellulose) (HPC) 113 % of control | dose: 16.0 mg/kg/injection, schedule: Q01DX009 (ip), vehicle: Klucel (hydroxypropylcellulose) (HPC) 111 % of control | dose: 32.0 mg/kg/injection, schedule: Q01DX009 (ip), vehicle: Klucel (hydroxypropylcellulose) (HPC) 120 % of control

O=C(Oc1ccc[nH]c1=O)C1CC1
inactive: [8] 99 % of control and 100 % of control | [9] 101 % of control and 102 % of control | dose: 50.0 mg/kg/injection, schedule: Q01DX009 (ip), vehicle: saline 98 % of control and 108 % of control | dose: 100.0 mg/kg/injection, schedule: Q01DX009 (ip), vehicle: saline 103 % of control and 106 % of control | dose: 200.0 mg/kg/injection, schedule: Q01DX009 (ip), vehicle: saline 107 % of control and 117 % of control | dose: 400.0 mg/kg/injection, schedule: Q01DX009 (ip), vehicle: saline 100 % of control

BrC(Br)(c1ccccc1)C1OCCO1
inactive: [10] 109 % of control | [11] 109 % of control | [12] 113 % of control

N.N.N.N.N.N.[Cl-].[Pt]
inactive: [8] 92 % of control | [9] 97 % of control

COC(=O)c1ccc(SCCC(C)=O)cc1
inactive: [10] 99 % of control | [11] 106 % of control | [12] 101 % of control

NC(CS(=O)Cc1ccccc1)C(=O)O (stereo unspecified)
inactive: [13] 95 % of control | [14] 102 % of control

COc1cc(-c2cnc3c(n2)c(=O)[nH]c(=O)n3C)ccc1O
inactive: dose: 100.0 mg/kg/injection, schedule: Q04DX002 (ip), vehicle: saline 104 % of control | dose: 200.0 mg/kg/injection, schedule: Q04DX002 (ip), vehicle: saline 103 % of control | dose: 400.0 mg/kg/injection, schedule: Q04DX002 (ip), vehicle: saline 95 % of control

Cc1cc(O)c(O)cc1C/C=C/c1ccccc1
inactive: dose: 2.5 mg/kg/injection, schedule: Q01DX009 (ip), vehicle: saline with Tween-80 101 % of control | dose: 5.0 mg/kg/injection, schedule: Q01DX009 (ip), vehicle: saline with Tween-80 100 % of control | dose: 10.0 mg/kg/injection, schedule: Q01DX009 (ip), vehicle: saline with Tween-80 100 % of control

S=c1n(-c2ccc(Cl)cc2)c2nc3ccccc3nc(/c2=N\Nc2ccc(Br)cc2)n1-c1ccccn1
inactive: [13] 101 % of control

CCc1nc(N)nc(N)c1-c1ccc(NCCc2ccccc2)c(N)c1
inactive: [4] 90 % of control | [15] 96 % of control | [16] 100 % of control

N#CC(N)C(F)c1ccccc1 (stereo unspecified)
inactive: [1] 100 % of control | [2] 101 % of control | [3] 101 % of control

C[CH2][Pb]([CH2]C)([CH2]C)[O]C(=O)COc1ccccc1
inactive: dose: 1.5 mg/kg/injection, schedule: Q04DX003 (ip), vehicle: Klucel (hydroxypropylcellulose) (HPC) 100 % of control | dose: 3.0 mg/kg/injection, schedule: Q04DX003 (ip), vehicle: Klucel (hydroxypropylcellulose) (HPC) 100 % of control | dose: 6.0 mg/kg/injection, schedule: Q04DX003 (ip), vehicle: Klucel (hydroxypropylcellulose) (HPC) 106 % of control

C=C(C)C1CNC(C(=O)O)C1CC(=O)O (stereo unspecified)
inactive: dose: 6.25 mg/kg/injection, schedule: Q01DX009 (ip), vehicle: saline sonified 105 % of control | dose: 12.5 mg/kg/injection, schedule: Q01DX009 (ip), vehicle: saline sonified 90 % of control | dose: 25.0 mg/kg/injection, schedule: Q01DX009 (ip), vehicle: saline sonified 100 % of control

C=C1[C@@H](O)C[C@@H]2C[C@@]3(C)[C@H](C(C)(C)C[C@@H]3O)C12O (stereo partly specified)
inactive: dose: 3.75 mg/kg/injection, schedule: Q01DX005 (ip), vehicle: saline 98 % of control | dose: 7.5 mg/kg/injection, schedule: Q01DX005 (ip), vehicle: saline 100 % of control | dose: 15.0 mg/kg/injection, schedule: Q01DX005 (ip), vehicle: saline 98 % of control

O=C(CCl)SCc1ccccc1
inactive: [17] 107 % of control | [18] 99 % of control

C=C1[C@H]2C[C@H]2[C@]2(C)C=C3OC(=O)C(C)=C3C[C@@H]12
inactive: dose: 5.5 mg/kg/injection, schedule: Q01DX005 (ip), vehicle: Klucel (hydroxypropylcellulose) (HPC) 94 % of control | dose: 11.0 mg/kg/injection, schedule: Q01DX005 (ip), vehicle: Klucel (hydroxypropylcellulose) (HPC) 98 % of control | dose: 22.0 mg/kg/injection, schedule: Q01DX005 (ip), vehicle: Klucel (hydroxypropylcellulose) (HPC) 100 % of control | dose: 44.0 mg/kg/injection, schedule: Q01DX005 (ip), vehicle: Klucel (hydroxypropylcellulose) (HPC) 94 % of control | dose: 80.0 mg/kg/injection, schedule: Q01DX005 (ip), vehicle: Klucel (hydroxypropylcellulose) (HPC) 91 % of control

CCOC(=O)C(=Cc1c[nH]c2ccc(Br)cc12)C(=O)OCC
inactive: [11] 104 % of control | [17] 109 % of control | [12] 87 % of control | [18] 109 % of control | dose: 400.0 mg/kg/injection, schedule: Q01DX009 (ip), vehicle: saline with Tween-80 100 % of control | dose: 400.0 mg/kg/injection, schedule: Q04DX003 (ip), vehicle: saline with Tween-80 100 % of control

C=CCNCCC1CCCCCC1
inactive: [4] 102 % of control

CC1(C)OC(C2SCCS2)C2OC(=O)C(O[Si](C)(C)C(C)(C)C)C2O1 (stereo unspecified)
inactive: [5] 99 % of control | [6] 93 % of control | [7] 93 % of control

CC1(C)OC2OC3C(CN)OC(c4ccccc4)OC3C2O1 (stereo unspecified)
inactive: [13] 105 % of control | [14] 103 % of control | dose: 200.0 mg/kg/injection, schedule: Q01DX005 (ip), vehicle: saline with Tween-80 86 % of control

N/C(=N\OC(=O)Nc1cccc(Cl)c1)C(Cl)(Cl)Cl
inactive: dose: 25.0 mg/kg/injection, schedule: Q01DX009 (ip), vehicle: Klucel (hydroxypropylcellulose) (HPC) 98 % of control | dose: 50.0 mg/kg/injection, schedule: Q01DX009 (ip), vehicle: Klucel (hydroxypropylcellulose) (HPC) 113 % of control | dose: 100.0 mg/kg/injection, schedule: Q01DX009 (ip), vehicle: Klucel (hydroxypropylcellulose) (HPC) 112 % of control

CN1CCc2c1n(-c1ccccc1)c(=S)n(-c1ccccc1)c2=S
inactive: [4] 107 % of control | [15] 100 % of control | [16] 98 % of control
